In patent publication US20240209028A1, “CNP COMPOUNDS” (priority 2022, published 2024):
Starred links: 1 amine or outer side, 2 acyl side, 3 side chain; linkers in the order of their positions; H or OH if unused. Positions of bridges follow the written chain, without caps; N, C: chain ends. Residues, ends and D or L forms follow the SMILES beside them. *: point of attachment. C18 diacid = O=C(O)CCCCCCCCCCCCCCCCC(=O)*; γGlu = O=C(O)[C@H](CCC(=O)[*:2])N[*:1]; AEEA = NCCOCCOCC(=O)O

Test: PK after i.v. and s.c. administration to Göttingen minipig
Conditions: female, Göttingen minipig and domestic LYD pig, minipig, in vivo, sc
Method in brief: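 Female Göttingen minipigs (6-12 months, ~22 kg) and domestic LYD pigs (4-5 months, ~80 kg) given CNP compounds i.v. (30-60 or 15-43 nmol/kg) or s.c. neck (55-62 or 20-30 nmol/kg) via catheter/pen. EDTA plasma sampled up to 14 days, CNP and cGMP by LC-MS; non-compartmental PK, F from dose-normalized AUC s.c./i.v.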

For CC[C@H](C)[C@@H]1NC(=O)[C@H](CCCNC(=N)N)NC(=O)[C@H](CCC(=O)O)NC(=O)[C@H](CC(C)C)NC(=O)[C@H](CCCCN)NC(=O)[C@H](CC(C)C)NC(=O)CNC(=O)[C@H](Cc2ccccc2)NC(=O)[C@@H](NC(=O)CNC(=O)[C@H](CCCCN)NC(=O)[C@H](CO)NC(=O)[C@H](CC(C)C)NC(=O)CNC(=O)[C@H](CCCCN)NC(=O)[C@H](CCCCN)NC(=O)[C@H](CCC(N)=O)NC(=O)[C@H](C)NC(=O)CNC(=O)[C@H](CCCCN)NC(=O)[C@H](Cc2ccc(O)cc2)NC(=O)[C@H](CCCCN)NC(=O)[C@H](CCCNC(=N)N)NC(=O)[C@H](C)NC(=O)COCCOCCNC(=O)COCCOCCNC(=O)CC[C@H](NC(=O)CCCCCCCCCCCCCCCCC(=O)O)C(=O)O)CSSC[C@@H](C(=O)O)NC(=O)CNC(=O)[C@H](CC(C)C)NC(=O)CNC(=O)[C@H](CO)NC(=O)[C@H](CC(C)C)NC(=O)[C@H](CO)NC(=O)CNC1=O [compound 0776] ({C18 diacid-γGlu-AEEA-AEEA}-ARKYKGAQKKGLSKGCFGLKLERIGSLSGLGC-OH; disulfide 16-32), which bioavailability is on record?
Its bioavailability is 7 to 13%.
